Reference: ChEMBL document CHEMBL1201862, “PubChem BioAssay data set” (2004)
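Method: 48-hour compound exposure of cells in 96-well plates, five concentrations, linear interpolation of endpoints. At the GI50, growth is halved.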 Activity calls are given as the source filed them. Cut-off read from the data, not from the text of the source: active = GI50 up to about 1.1 µM and inactive = higher.

Legend:
Assay in all cases: NCI-60 cell line screen, 48 h
786-0 = tested on: 786-0
A498 = tested on: A498
A549 = tested on: A549
ACHN = tested on: ACHN
BT-549 = tested on: BT-549
CAKI-1 = tested on: CAKI-1
CCRF-CEM = tested on: CCRF-CEM
COLO 205 = tested on: COLO 205
DLD-1 = tested on: DLD-1
DMS-273 = tested on: DMS-273
DU-145 = tested on: DU-145
EKVX = tested on: EKVX
HCC 2998 = tested on: HCC 2998
HCT-116 = tested on: HCT-116
HCT-15 = tested on: HCT-15
HL-60 = tested on: HL-60
HOP-18 = tested on: HOP-18
HOP-62 = tested on: HOP-62
HOP-92 = tested on: HOP-92
HT-29 = tested on: HT-29
Hs-578T = tested on: Hs-578T
IGROV-1 = tested on: IGROV-1
K562 = tested on: K562
KM-20L2 = tested on: KM-20L2
KM12 = tested on: KM12
LOX IMVI = tested on: LOX IMVI
M14 = tested on: M14
M19-MEL = tested on: M19-MEL
MCF7 = tested on: MCF7
MDA-MB-231 = tested on: MDA-MB-231
MDA-MB-435 = tested on: MDA-MB-435
MOLT-4 = tested on: MOLT-4
Malme-3M = tested on: Malme-3M
NCI-H226 = tested on: NCI-H226
NCI-H23 = tested on: NCI-H23
NCI-H460 = tested on: NCI-H460
NCI-H522 = tested on: NCI-H522
NCI/ADR-RES = tested on: NCI/ADR-RES
OVCAR-3 = tested on: OVCAR-3
OVCAR-4 = tested on: OVCAR-4
OVCAR-5 = tested on: OVCAR-5
OVCAR-8 = tested on: OVCAR-8
PC-3 = tested on: PC-3
RPMI-8226 = tested on: RPMI-8226
RXF 393 = tested on: RXF 393
SF-268 = tested on: SF-268
SF-295 = tested on: SF-295
SF-539 = tested on: SF-539
SK-MEL-28 = tested on: SK-MEL-28
SK-MEL-2 = tested on: SK-MEL-2
SK-MEL-5 = tested on: SK-MEL-5
SK-OV-3 = tested on: SK-OV-3
SN12C = tested on: SN12C
SNB-19 = tested on: SNB-19
SNB-75 = tested on: SNB-75
SNB-78 = tested on: SNB-78
SW-620 = tested on: SW-620
T47D = tested on: T47D
TK-10 = tested on: TK-10
U-251 = tested on: U-251
UACC-257 = tested on: UACC-257
UACC-62 = tested on: UACC-62
UO-31 = tested on: UO-31
XF498 = tested on: XF498
DMS-114 = tested on: DMS-114
LXFL 529 = tested on: LXFL 529
MDA-N = tested on: MDA-N
SR = tested on: SR

CC1=C(C(=O)Nc2ccc(Cl)c(C(=O)OC(C)C)c2)SCCO1
GI50 (786-0): > 100 µM (inactive)
GI50 (A498): 53.5 µM (inactive)
GI50 (A549): 50.1 µM (inactive)
GI50 (ACHN): > 100 µM (inactive)
GI50 (BT-549): > 100 µM (inactive)
GI50 (CAKI-1): > 100 µM (inactive)
GI50 (CCRF-CEM): 48.6 µM (inactive)
GI50 (COLO 205): 51.9 µM (inactive)
GI50 (DLD-1): 74 µM (inactive)
GI50 (DMS-273): 55.6 µM (inactive)
GI50 (DU-145): > 100 µM (inactive)
GI50 (EKVX): 71.4 µM (inactive)
GI50 (HCC 2998): 54.8 µM (inactive)
GI50 (HCT-116): > 77.4 µM (inactive)
GI50 (HCT-15): 69 µM
GI50 (HL-60): 13.8 µM (inactive)
GI50 (HOP-18): 81.3 µM (inactive)
GI50 (HOP-62): > 91.4 µM (inactive)
GI50 (HOP-92): 66.2 µM (inactive)
GI50 (HT-29): 25.7 µM (inactive)
GI50 (Hs-578T): 17.7 µM (inactive)
GI50 (IGROV-1): 72.4 µM (inactive)
GI50 (K562): 45.6 µM (inactive)
GI50 (KM-20L2): 33.9 µM (inactive)
GI50 (KM12): 80.9 µM (inactive)
GI50 (LOX IMVI): 51.6 µM (inactive)
GI50 (M14): > 100 µM (inactive)
GI50 (M19-MEL): 26.6 µM (inactive)
GI50 (MCF7): 55.3 µM (inactive)
GI50 (MDA-MB-231): > 100 µM (inactive)
GI50 (MDA-MB-435): > 100 µM (inactive)
GI50 (MOLT-4): 40.4 µM (inactive)
GI50 (Malme-3M): 47.3 µM (inactive)
GI50 (NCI-H226): 75.3 µM (inactive)
GI50 (NCI-H23): 69.2 µM (inactive)
GI50 (NCI-H460): 66.2 µM (inactive)
GI50 (NCI-H522): 36.4 µM (inactive)
GI50 (NCI/ADR-RES): 66.2 µM (inactive)
GI50 (OVCAR-3): 86.1 µM (inactive)
GI50 (OVCAR-4): 56.8 µM (inactive)
GI50 (OVCAR-5): 47.9 µM (inactive)
GI50 (OVCAR-8): 81.3 µM (inactive)
GI50 (PC-3): > 100 µM (inactive)
GI50 (RPMI-8226): 23.3 µM (inactive)
GI50 (RXF 393): 48.1 µM (inactive)
GI50 (SF-268): 30.6 µM (inactive)
GI50 (SF-295): 54.7 µM (inactive)
GI50 (SF-539): > 89.3 µM (inactive)
GI50 (SK-MEL-28): 74.6 µM (inactive)
GI50 (SK-MEL-2): 68.4 µM (inactive)
GI50 (SK-MEL-5): 50.1 µM (inactive)
GI50 (SK-OV-3): > 81.1 µM (inactive)
GI50 (SN12C): > 100 µM (inactive)
GI50 (SNB-19): 70.5 µM (inactive)
GI50 (SNB-75): 75.9 µM (inactive)
GI50 (SNB-78): 99.5 µM (inactive)
GI50 (SW-620): 74.8 µM (inactive)
GI50 (T47D): 24.2 µM (inactive)
GI50 (TK-10): > 100 µM (inactive)
GI50 (U-251): 55.7 µM (inactive)
GI50 (UACC-257): 62.1 µM (inactive)
GI50 (UACC-62): 67.6 µM (inactive)
GI50 (UO-31): 36.9 µM (inactive)
GI50 (XF498): 62.4 µM (inactive)

Oc1cccc(-c2cc(O)c3cc4c(cc3n2)OCO4)c1
GI50 (786-0): 5.52 µM (inactive)
GI50 (A498): 41.8 µM (inactive)
GI50 (A549): 5.27 µM (inactive)
GI50 (ACHN): 5.85 µM (inactive)
GI50 (BT-549): 0.867 µM (active)
GI50 (CCRF-CEM): 0.54 µM (active)
GI50 (COLO 205): 2.68 µM (inactive)
GI50 (DLD-1): 3.43 µM (inactive)
GI50 (DMS-114): 0.721 µM (active)
GI50 (DMS-273): 1.09 µM (active)
GI50 (DU-145): 0.302 µM (active)
GI50 (HCC 2998): 4.28 µM (inactive)
GI50 (HCT-116): 1.43 µM (inactive)
GI50 (HCT-15): 2.74 µM
GI50 (HL-60): 1.26 µM (inactive)
GI50 (HOP-18): > 100 µM (inactive)
GI50 (HOP-62): 1.6 µM (inactive)
GI50 (HT-29): 3.37 µM (inactive)
GI50 (Hs-578T): 0.457 µM (active)
GI50 (IGROV-1): 4.98 µM (inactive)
GI50 (K562): 0.505 µM (active)
GI50 (KM12): 0.561 µM (active)
GI50 (LOX IMVI): 4.98 µM (inactive)
GI50 (LXFL 529): 1.87 µM (inactive)
GI50 (M14): 3.58 µM (inactive)
GI50 (M19-MEL): 1.49 µM (inactive)
GI50 (MCF7): 3.1 µM (inactive)
GI50 (MDA-MB-231): 1.92 µM (inactive)
GI50 (MDA-MB-435): 0.277 µM (active)
GI50 (MDA-N): 0.231 µM (active)
GI50 (MOLT-4): 3.77 µM (inactive)
GI50 (Malme-3M): 0.352 µM (active)
GI50 (NCI-H226): 2.9 µM (inactive)
GI50 (NCI-H23): 4.3 µM (inactive)
GI50 (NCI-H460): 17.8 µM (inactive)
GI50 (NCI-H522): 0.284 µM (active)
GI50 (NCI/ADR-RES): 1.31 µM (inactive)
GI50 (OVCAR-3): 0.193 µM (active)
GI50 (OVCAR-4): > 100 µM (inactive)
GI50 (OVCAR-5): > 100 µM (inactive)
GI50 (OVCAR-8): 2.85 µM (inactive)
GI50 (PC-3): 1.55 µM (inactive)
GI50 (RPMI-8226): 4.03 µM (inactive)
GI50 (RXF 393): 1.67 µM (inactive)
GI50 (SF-268): 1.71 µM (inactive)
GI50 (SF-295): 5.74 µM (inactive)
GI50 (SF-539): 1.7 µM (inactive)
GI50 (SK-MEL-28): 2.81 µM (inactive)
GI50 (SK-MEL-2): 0.851 µM (active)
GI50 (SK-MEL-5): 1.46 µM (inactive)
GI50 (SK-OV-3): 1.41 µM (inactive)
GI50 (SN12C): 3.03 µM (inactive)
GI50 (SNB-19): 3.84 µM (inactive)
GI50 (SNB-75): 0.379 µM (active)
GI50 (SNB-78): 1.03 µM (active)
GI50 (SR): 0.283 µM (active)
GI50 (SW-620): 3.21 µM (inactive)
GI50 (T47D): 23.7 µM (inactive)
GI50 (TK-10): 13.2 µM (inactive)
GI50 (U-251): 1.43 µM (inactive)
GI50 (UACC-257): > 26.1 µM (inactive)
GI50 (UACC-62): 2.42 µM (inactive)
GI50 (UO-31): 4.23 µM (inactive)
GI50 (XF498): 7.26 µM (inactive)

CC(C)(C)N/N=N/c1cn(C2OC(CO)C(O)C2O)c(=O)[nH]c1=O (configuration not stated)
GI50 (786-0): > 100 µM (inactive)
GI50 (A498): > 100 µM (inactive)
GI50 (A549): > 100 µM (inactive)
GI50 (ACHN): > 100 µM (inactive)
GI50 (CAKI-1): > 100 µM (inactive)
GI50 (CCRF-CEM): 26.2 µM (inactive)
GI50 (COLO 205): 37.2 µM (inactive)
GI50 (DLD-1): 43.3 µM (inactive)
GI50 (DMS-114): 40.3 µM (inactive)
GI50 (DMS-273): > 100 µM (inactive)
GI50 (EKVX): > 100 µM (inactive)
GI50 (HCC 2998): > 100 µM (inactive)
GI50 (HCT-116): 40.7 µM (inactive)
GI50 (HCT-15): 43.5 µM
GI50 (HL-60): 50.9 µM (inactive)
GI50 (HOP-18): > 100 µM (inactive)
GI50 (HOP-62): > 100 µM (inactive)
GI50 (HOP-92): > 100 µM (inactive)
GI50 (HT-29): > 100 µM (inactive)
GI50 (IGROV-1): > 100 µM (inactive)
GI50 (K562): 40.7 µM (inactive)
GI50 (KM-20L2): > 100 µM (inactive)
GI50 (KM12): > 100 µM (inactive)
GI50 (LOX IMVI): 41.7 µM (inactive)
GI50 (LXFL 529): > 100 µM (inactive)
GI50 (M14): > 100 µM (inactive)
GI50 (M19-MEL): > 100 µM (inactive)
GI50 (MOLT-4): > 100 µM (inactive)
GI50 (Malme-3M): > 100 µM (inactive)
GI50 (NCI-H226): > 100 µM (inactive)
GI50 (NCI-H23): > 100 µM (inactive)
GI50 (NCI-H460): 64.9 µM (inactive)
GI50 (NCI-H522): > 100 µM (inactive)
GI50 (OVCAR-3): > 100 µM (inactive)
GI50 (OVCAR-5): > 100 µM (inactive)
GI50 (OVCAR-8): > 100 µM (inactive)
GI50 (RPMI-8226): 20 µM (inactive)
GI50 (RXF 393): 61.4 µM (inactive)
GI50 (SF-268): > 100 µM (inactive)
GI50 (SF-295): > 100 µM (inactive)
GI50 (SK-MEL-28): > 100 µM (inactive)
GI50 (SK-MEL-2): > 100 µM (inactive)
GI50 (SK-MEL-5): > 100 µM (inactive)
GI50 (SK-OV-3): > 100 µM (inactive)
GI50 (SN12C): > 100 µM (inactive)
GI50 (SNB-19): > 100 µM (inactive)
GI50 (SNB-75): > 100 µM (inactive)
GI50 (SNB-78): > 100 µM (inactive)
GI50 (SR): 20.8 µM (inactive)
GI50 (SW-620): 17.6 µM (inactive)
GI50 (TK-10): > 100 µM (inactive)
GI50 (UACC-257): > 100 µM (inactive)
GI50 (UACC-62): > 100 µM (inactive)
GI50 (UO-31): > 100 µM (inactive)
